Experimental findings from ChEMBL document CHEMBL4706632, “Development of Potential Antitumor Agents from the Scaffolds of Plant-Derived Terpenoid Lactones” (J Med Chem, 2020) are described below.

Molecules are shown by their SMILES.

One series concerns HT-29. As to the kind of experiment: Cytotoxicity against human HT-29 cells incubated for 72 hrs by sulforhodamine B assay. In kind it is functional, cell-based. The conditions noted are these: HT-29, 72 h. In general terms: Sulforhodamine B stains cellular protein and so reports cell mass.
In the next series the test system is MCF7. As to the kind of experiment: Antiproliferative activity against human MCF7 cells incubated for 24 hrs by MTT assay. As to conditions: MCF7, 24 h. In kind it is functional, cell-based. A general note: Tetrazolium assays rely on reduction of a dye to a coloured formazan, in cell work by metabolically active cells.
A further series has as its system MDA-MB-231. As to the kind of experiment: Antiproliferative activity against human MDA-MB-231 cells incubated for 24 hrs by MTT assay. The series is classed as functional, cell-based. The conditions noted are these: MDA-MB-231, 24 h.
Series [1] is described as follows: Cmax in Sprague-Dawley rat at 10 mg/kg, po measured after 0.25 to 72 hrs by LC/QTOF/MS method. In kind it is ADME, organism-based. On the set-up: route oral, time upper 72 hrs, time lower 0.25 hrs, dose 10 mg/kg. The conditions noted are these: in vivo.
The nature of series [2]: Cmax in Sprague-Dawley rat at 10 mg/kg, iv measured after 0.08 to 72 hrs by LC/QTOF/MS method. The series is classed as ADME, organism-based. On the set-up: route intravenous, dose 10 mg/kg, time upper 72 hrs, time lower 0.08 hrs. The conditions noted are these: in vivo.
Series [3] deals with Jurkat. As to the kind of experiment: Cytotoxicity against human Jurkat cells incubated for 72 hrs by ATPlite assay. In kind it is functional, cell-based. (In ATP-based viability assays light output follows the ATP content of the culture.)
The subject of a further series is L1210. Kind of series: Cytotoxicity against mouse L1210 cells. The series is classed as functional, cell-based.
Series [4] can be described thus: Cytotoxicity against human Lu-1 cells. In kind it is functional, cell-based. As to conditions: Lu1.
The next series relates to CCRF-CEM. As to the kind of experiment: Cytotoxicity against human CEM cells incubated for 72 hrs by MTT assay. The series is classed as functional, cell-based.
Series [5] concerns LNCaP. As to the kind of experiment: Cytotoxicity against human LNCaP cells. In kind it is functional, cell-based.
The test system of a further series is WM 266-4. As to the kind of experiment: Cytotoxicity against human WM 266-4 cells incubated for 72 hrs by ATPlite assay. As to conditions: WM 266-4, 72 h. The series is classed as functional, cell-based.
In the next series the test system is HL-60. As to the kind of experiment: Cytotoxicity against human HL-60 cells incubated for 72 hrs by ATPlite assay. The conditions noted are these: HL-60, 72 h. In kind it is functional, cell-based.
The test system of a further series is HCT-116. As to the kind of experiment: Cytotoxicity against human HCT116 cells incubated for 72 hrs by ATPlite assay. The conditions noted are these: HCT-116, 72 h. The series is classed as functional, cell-based.
The subject of a further series is SW626. As to the kind of experiment: Cytotoxicity against human SW626 cells. In kind it is functional, cell-based.
The test system of another series is Raji. As to the kind of experiment: Antiproliferative activity against human Raji cells incubated for 3 to 6 days by alamar blue assay. The series is classed as functional, cell-based.
A further series deals with MGC-803. As to the kind of experiment: Cytotoxicity against human MGC-803 cells incubated for 72 hrs by Alamar Blue method. In kind it is functional, cell-based. As to conditions: MGC-803, 72 h.
In the next series the test system is RKO. Kind of series: Cytotoxicity against human RKO cells incubated for 72 hrs by Cell Titer-Glo luminescence assay. In kind it is functional, cell-based.
A further series concerns SW480. As to the kind of experiment: Cytotoxicity against human SW480 cells incubated for 72 hrs by Cell Titer-Glo luminescence assay. As to conditions: SW480, 72 h. In kind it is functional, cell-based.
Another series relates to ASPC1. As to the kind of experiment: Antiproliferative activity against human ASPC1 incubated for 72 hrs by alamar blue assay. As to conditions: ASPC1, 72 h. The series is classed as functional, cell-based.
For the next series, the system named is PC-3. Kind of series: Antiproliferative activity against human PC-3 cells incubated for 72 hrs by CCK8 assay. The series is classed as functional, cell-based. As to conditions: PC-3, 72 h.
Series [6] relates to Jurkat. As to the kind of experiment: Antiproliferative activity against human Jurkat cells incubated for 3 to 6 days by alamar blue assay. The series is classed as functional, cell-based.
Another series has as its system PANC-1. Kind of series: Cytotoxicity against human Panc-1 cells incubated for 72 hrs by alamar blue assay. In kind it is functional, cell-based. As to conditions: PANC-1, 72 h.
In the next series the test system is AGS. As to the kind of experiment: Cytotoxicity against human AGS cells incubated for 72 hrs by Alamar Blue method. In kind it is functional, cell-based.
A further series concerns BXPC-3. Kind of series: Antiproliferative activity against human BXPC-3 incubated for 72 hrs by alamar blue assay. In kind it is functional, cell-based. The conditions noted are these: BXPC-3, 72 h.
The test system of another series is SGC-7901. As to the kind of experiment: Cytotoxicity against human SGC-7901 cells incubated for 72 hrs by Alamar Blue method. The series is classed as functional, cell-based. The conditions noted are these: SGC-7901, 72 h.
The nature of series [7]: Antiproliferative activity against human PaTu8988 incubated for 72 hrs by alamar blue assay. In kind it is functional. As to conditions: PaTu8988, 72 h.
The next series has as its system HGC-27. Kind of series: Cytotoxicity against human HGC-27 cells incubated for 72 hrs by Alamar Blue method. The series is classed as functional, cell-based. The conditions noted are these: HGC-27, 72 h.
The test system of a further series is CFPAC-1. Kind of series: Antiproliferative activity against human CFPAC-1 incubated for 72 hrs by alamar blue assay. The conditions noted are these: CFPAC-1, 72 h. The series is classed as functional, cell-based.
Another series concerns NCI-N87. Kind of series: Cytotoxicity against human NCI-N87 cells incubated for 72 hrs by Alamar Blue method. In kind it is functional, cell-based. The conditions noted are these: NCI-N87, 72 h.
Another series has as its system SW1990. As to the kind of experiment: Antiproliferative activity against human SW1990 incubated for 72 hrs by alamar blue assay. In kind it is functional, cell-based. The conditions noted are these: SW1990, 72 h.
Series [8] relates to LNCaP. Kind of series: Antiproliferative activity against human LNCaP cells incubated for 72 hrs by CCK8 assay. The series is classed as functional, cell-based.
Series [9] is described as follows: Antitumor activity against human PaTu8988 cells xenografted in NOD/SCID mouse assessed as tumor growth inhibition at 5 mg/kg, ip administered daily for 60 days by digital caliper method relative to control. In kind it is functional. The conditions noted are these: 1440 h, time 60 day, read-out: TGI.
The test system of the next series is DU-145. As to the kind of experiment: Antiproliferative activity against human DU-145 cells incubated for 72 hrs by CCK8 assay. The series is classed as functional, cell-based. The conditions noted are these: DU-145, 72 h.

Broadly, the IC50 is the concentration that gives 50% inhibition. As a reminder, the Cmax is the highest concentration seen after dosing. One may read the EC90 as the concentration at which the effect reaches the 90% level. Low values mean greater potency, high ones weaker potency. What is called EC50 is the concentration that produces a half-maximal response. Low readings indicate an effect from little substance, high ones a need for much substance.

In turn, `COC/C(C)=C/[C@@H]1OC(=O)[C@H]([C@@H]2CC[C@]34C[C@]23C=C[C@@H]2[C@@]3(C)CC=C5C[C@@H](c6ccc7c(c6)OCO7)OC[C@]5(C)[C@@H]3C[C@@H](O)[C@]24C)[C@H]1O` had an IC50 in the series with HT-29 of over 10000 nM.
Consider `COC(=O)C[C@H]1[C@]2(C)C3=C(C)[C@H](c4ccoc4)C[C@H]3O[C@@H]2[C@@H]2OC(=O)[C@]3(C)C=CC(=O)[C@@]1(C)[C@@H]23` [NIMBOLIDE], for which the IC50 with MCF7 is 4000 nM; in the series on MDA-MB-231, 6000 nM. The Cmax worked out at 15.3 ng/mL in series [1] and 5560 ng/mL in [2].
Take `C/C(=C\[C@H]1C[C@@H]([C@@H]2CC[C@]34C[C@]23C=C[C@@H]2[C@@]3(C)CC=C5C[C@@H](c6ccccc6)OC[C@]5(C)[C@@H]3C[C@@H](O)[C@]24C)C(=O)O1)CO` [DICHAPETALIN A]: the IC50 in the series on Jurkat [3] was 3000 nM; in series [4] it was 7000 nM; with CCRF-CEM, 9600 nM; with LNCaP [5] it was 12000 nM; in the series on HL-60, 11000 nM; in the series on SW626 it was 340 nM. Also, the EC90 in the series on L1210 was under 0.17 nM. The EC50 in the series with WM 266-4 is 17000 nM; in the series on HCT-116, 250 nM.
In the case of `CC(C)[C@]12O[C@H]1[C@@H]1O[C@@]13[C@@]1(C)CCC4=C(COC4=O)[C@@H]1C[C@@H]1O[C@@]13C2=O` [TRIPTONIDE], the IC50 with Raji is 4 nM; in the series with MGC-803, under 20 nM; in the series on RKO it was 15 nM; in the series on SW480 it was 17 nM; in the series on ASPC1, under 20 nM; in the series with PC-3, 12 nM. Also, the IC50 with Jurkat [6] was 4 nM; in the series with PANC-1 it was under 20 nM; with AGS, under 20 nM; in the series with BXPC-3 it was under 20 nM; in the series on SGC-7901 it was under 20 nM; in series [7] it was under 20 nM. Also, the IC50 is under 20 nM with HGC-27; under 20 nM with CFPAC-1; under 20 nM in the series with NCI-N87; under 20 nM in the series on SW1990; 10 nM with LNCaP [8]; 10 nM in the series with DU-145. Besides, in series [9], the inhibition in vivo at 5 mg/kg was 97.5%.
